The test system of the first test is T cell IL-2 production in human whole blood. Briefly: Human Whole Blood Assay (inhibition of T cell IL-2 production). In kind it is cell-based. Particulars: T-cell, 10 μM Thapsigargin overnight, plasma IL-2 by AlphaLISA, read-out: HWB. The procedure: Inhibition of T cell IL-2 production CRAC compounds were tested in human whole blood from normal donors. 200 μl of human whole blood was aliquoted into each well of a round bottom 96 well plate. Concentration-response curves were generated for test compounds and CsA (as controls) by performing serial dilutions of the compounds and incubating each concentration in a single well for 30 min (experiment was performed in triplicate). Following incubation, the blood was stimulated with 10 μM Thapsigargin (SIGMA) overnight at 37° C. IL-2 concentrations in the plasma were determined by AlphaLISA IL-2 assay (Perkin Elmer). Data analysis was performed using GraphPad PRISMS.
A general note: In Alpha technology, singlet oxygen from a donor bead excites a nearby acceptor bead.
Take `CCc1sc(-c2ccccn2)nc1-c1ccc2c(c1)OCC(c1c(F)cccc1F)N2` (stereo not shown) [Example 13, 3-(2,6-Difluoro-phenyl)-7-(5-ethyl-2-pyridin-2-yl-thiazol-4-yl)-3,4-dihydro-2H-benzo[1,4]oxazine]: the IC50 is 1.94 µM.

Regarding `Cc1ccc(C(F)(F)F)cc1-c1ccc2c(c1)OCC(c1c(F)cccc1F)N2` (stereo not shown) [Example 4, 3-(2,6-difluoro-phenyl)-7-(2-methyl-5-trifluoromethyl-phenyl)-3,4-dihydro-2H-benzo[1,4]oxazine], the IC50 amounted to 3.22 µM.

Turning to `Cn1nc(C(F)(F)F)cc1-c1ccc2c(c1)OCC(c1c(F)cccc1F)N2` (stereo not shown) [Example 5, 3-(2,6-Difluoro-phenyl)-7-(2-methyl-5-trifluoromethyl-2H-pyrazol-3-yl)-3,4-dihydro-2H-benzo[1,4]oxazine], the IC50 was determined as 0.91 µM.

Turning to `Cc1cc(C(F)(F)F)ccc1-c1ccc2c(c1)OCC(c1c(F)cccc1Cl)N2` (stereo not shown) [Example 29, 3-(2-Chloro-6-fluoro-phenyl)-7-(2-methyl-4-trifluoromethyl-phenyl)-3,4-dihydro-2H-benzo[1,4]oxazine], the IC50 came to 5.33 µM.

In the case of `CCc1sc(-c2ncco2)nc1-c1ccc2c(c1)OCC(c1c(F)cccc1F)N2` (stereo not shown) [Example 19, 3-(2,6-Difluoro-phenyl)-7-(5-ethyl-2-oxazol-2-yl-thiazol-4-yl)-3,4-dihydro-2H-benzo[1,4]oxazine], the IC50 worked out at 0.65 µM.

Consider `CCc1cc(-c2nc(-c3ccc4c(c3)OCC(c3c(F)cccc3F)N4)c(CC)s2)ccn1` (stereo not shown) [Example 18, 3-(2,6-Difluoro-phenyl)-7-[5-ethyl-2-(2-ethyl-pyridin-4-yl)-thiazol-4-yl]-3,4-dihydro-2H-benzo[1,4]oxazine], for which the IC50 was determined as 6.15 µM.

Consider `Cc1ccc(-c2ncco2)cc1-c1ccc2c(c1)OCC(c1c(F)cccc1F)N2` (stereo not shown) [Example 28, 3-(2,6-Difluoro-phenyl)-7-(2-methyl-5-oxazol-2-yl-phenyl)-3,4-dihydro-2H-benzo[1,4]oxazine], for which the IC50 worked out at 1 µM.

A further test concerns IL-2 production in Jurkat cell (ATCC). The experiment in a line: Jurkat IL-2 Production Assay. In kind it is cell-based. Particulars: Homo sapiens, Jurkat cells, 18-20 h incubation, serum/stimulant variant (1% FBS/PHA or 30% FBS/PMA+ionomycin) not given. The procedure: Jurkat IL-2 Production Assay Cell: Jurkat cell (ATCC) was grown in RPMI 1640 with 10% FBS and 1% penicillin/streptomycin. The cell density was kept at 1.2˜1.8×10^6/mL in culture flask before seeding into culture plate, and the cell density in the plate was 0.5×10^6/2004/well. Culture Media: RPMI 1640 with 1% FBS or 30% FBS for high serum assay. Test Compound: Serial dilution was done in 100% DMSO, and intermediate dilution was done with RPMI 1640 medium with 1% FBS. The DMSO final concentration in culture well was 0.25%. Stimulant: PHA (Sigma#L9017-10MG) was used for the assay with 1% FBS in culture medium, and added after 10 minutes exposure of cell to compound/DMSO. The PHA final concentration in culture well was 5 μg/mL. PMA (Sigma# P-8139 5MG)/Ionomycin (Sigma# I0634-5MG) was used for the assay with 30% FBS in culture medium, and added at same time point as the 1% FBS culture assay. The final concentration of PMA was 50 ng/mL, and Ionomycin final concentration was 500 ng/mL. Incubation: At 37° C. with 5% CO2 and 95% humidity for 18 h˜20 h. IC50: IC50 was calculated with the data analysis software XLfit4, General Pharmacology model 251.
`CCn1nc(-c2cnccn2)cc1-c1ccc2c(c1)OCC(c1c(F)cccc1F)N2` (stereo not shown) [Example 8, 3-(2,6-Difluoro-phenyl)-7-(2-ethyl-5-pyrazin-2-yl-2H-pyrazol-3-yl)-3,4-dihydro-2H-benzo[1,4]oxazine] had an IC50 of 0.11 µM.

Compound `CCc1sc(-c2cnccn2)nc1-c1ccc2c(c1)OCC(c1ccccc1Cl)N2` (stereo not shown) [Example 37, 3-(2-chlorophenyl)-7-(5-ethyl-2-(pyrazin-2-yl)thiazol-4-yl)-3,4-dihydro-2H-benzo[b][1,4]oxazine] came in with an IC50 of 0.07 µM.

In the case of `Cc1cc(C(F)(F)F)ccc1-c1ccc2c(c1)OCC(c1c(F)cccc1F)N2` (stereo not shown) [Example 1, 3-(2,6-Difluoro-phenyl)-7-(2-methyl-4-trifluoromethyl-phenyl)-3,4-dihydro-2H-benzo[1,4]oxazine], the IC50 came out at 0.12 µM.

In turn, `Cc1cc(-c2nnn(C)n2)ncc1-c1ccc2c(c1)OCC(c1c(F)cccc1F)N2` (stereo not shown) [Example 27, 3-(2,6-difluorophenyl)-7-(4-methyl-6-(2-methyl-2H-tetrazol-5-yl)pyridin-3-yl)-3,4-dihydro-2H-benzo[b][1,4]oxazine] gave an IC50 of 0.67 µM.

`Cc1ccc(C(F)(F)F)cc1-c1ccc2c(c1)OCC(c1c(F)cccc1F)N2` (stereo not shown) [Example 4, 3-(2,6-difluoro-phenyl)-7-(2-methyl-5-trifluoromethyl-phenyl)-3,4-dihydro-2H-benzo[1,4]oxazine] displayed an IC50 of 0.1 µM.

In turn, `Cc1cc(Cl)ncc1-c1ccc2c(c1)OCC(c1c(F)cccc1F)N2` (stereo not shown) [Example 23, 7-(6-Chloro-4-methyl-pyridin-3-yl)-3-(2,6-difluoro-phenyl)-3,4-dihydro-2H-benzo[1,4]oxazine] displayed an IC50 of 0.32 µM.

With `Cn1nc(C(F)(F)F)cc1-c1ccc2c(c1)OCC(c1c(F)cccc1F)N2` (stereo not shown) [Example 5, 3-(2,6-Difluoro-phenyl)-7-(2-methyl-5-trifluoromethyl-2H-pyrazol-3-yl)-3,4-dihydro-2H-benzo[1,4]oxazine], the IC50 came to 0.1 µM.

Regarding `Cc1cc(-c2cnc(N)nc2)ncc1-c1ccc2c(c1)OCC(c1c(F)cccc1F)N2` (stereo not shown) [Example 25, 5-(5-(3-(2,6-difluorophenyl)-3,4-dihydro-2H-benzo[b][1,4]oxazin-7-yl)-4-methylpyridin-2-yl)pyrimidin-2-amine], the IC50 turned out to be 0.66 µM.

Turning to `Cc1cc(C(F)(F)F)ccc1-c1ccc2c(c1)OCC(c1c(F)cccc1Cl)N2` (stereo not shown) [Example 29, 3-(2-Chloro-6-fluoro-phenyl)-7-(2-methyl-4-trifluoromethyl-phenyl)-3,4-dihydro-2H-benzo[1,4]oxazine], the IC50 was 0.16 µM.

Regarding `Cn1nc(C(F)(F)F)cc1-c1ccc2c(c1)OCC(c1ccccc1Cl)N2` (stereo not shown) [Example 34, 3-(2-chlorophenyl)-7-(1-methyl-3-(trifluoromethyl)-1H-pyrazol-5-yl)-3,4-dihydro-2H-benzo[b][1,4]oxazine], the IC50 came out at 0.35 µM.

In turn, `Cc1cc(-c2ncco2)ncc1-c1ccc2c(c1)OCC(c1c(F)cccc1F)N2` (stereo not shown) [Example 24, 3-(2,6-Difluoro-phenyl)-7-(4-methyl-6-oxazol-2-yl-pyridin-3-yl)-3,4-dihydro-2H-benzo[1,4]oxazine] gave an IC50 of 0.34 µM.

As to `Cc1ccc(C(F)(F)F)cc1-c1ccc2c(c1)OCC(c1c(F)cccc1Cl)N2` (stereo not shown) [Example 30, 3-(2-Chloro-6-fluoro-phenyl)-7-(2-methyl-5-trifluoromethyl-phenyl)-3,4-dihydro-2H-benzo[1,4]oxazine], the IC50 was found to be 0.22 µM.

Compound `Cc1sc(-c2cnccn2)nc1-c1ccc2c(c1)OCC(c1c(F)cccc1F)N2` (stereo not shown) [Example 15, 3-(2,6-difluorophenyl)-7-(5-methyl-2-(pyrazin-2-yl)thiazol-4-yl)-3,4-dihydro-2H-benzo[b][1,4]oxazine] showed an IC50 of 0.06 µM.

Compound `COc1cc(C)c(-c2ccc3c(c2)OCC(c2c(F)cccc2Cl)N3)cn1` (stereo not shown) [Example 33, 3-(2-Chloro-6-fluoro-phenyl)-7-(6-methoxy-4-methyl-pyridin-3-yl)-3,4-dihydro-2H-benzo[1,4]oxazine] registered an IC50 of 0.38 µM.

`Cc1ncc(-c2cc(C)c(-c3ccc4c(c3)OCC(c3c(F)cccc3F)N4)cn2)s1` (stereo not shown) [Example 26, 3-(2,6-difluorophenyl)-7-(4-methyl-6-(2-methylthiazol-5-yl)pyridin-3-yl)-3,4-dihydro-2H-benzo[b][1,4]oxazine]: the IC50 is 0.21 µM.

With `COc1cc(C)c(-c2ccc3c(c2)OCC(c2c(F)cccc2F)N3)cn1` (stereo not shown) [Example 21, 3-(2,6-Difluoro-phenyl)-7-(6-methoxy-4-methyl-pyridin-3-yl)-3,4-dihydro-2H-benzo[1,4]oxazine], the IC50 is 0.28 µM.

The compound `Cc1sc(-c2cccnc2)nc1-c1ccc2c(c1)OCC(c1ccccc1Cl)N2` (stereo not shown) [Example 36, 3-(2-chlorophenyl)-7-(5-methyl-2-(pyridin-3-yl)thiazol-4-yl)-3,4-dihydro-2H-benzo[b][1,4]oxazine] displayed an IC50 of 0.09 µM.

On to `CCS(=O)(=O)c1cc(C)c(-c2ccc3c(c2)OCC(c2c(F)cccc2F)N3)cn1` (stereo not shown) [Example 22, 3-(2,6-difluorophenyl)-7-(6-(ethylsulfonyl)-4-methylpyridin-3-yl)-3,4-dihydro-2H-benzo[b][1,4]oxazine], for which the IC50 was found to be 0.09 µM.

`Cn1nc(-c2cccnc2)nc1-c1ccc2c(c1)OCC(c1c(F)cccc1F)N2` (stereo not shown) [Example 9, 3-(2,6-Difluoro-phenyl)-7-(2-methyl-5-pyridin-3-yl-2H-[1,2,4]triazol-3-yl)-3,4-dihydro-2H-benzo[1,4]oxazine] yielded an IC50 of 0.31 µM.

`COc1cc(C)c(-c2ccc3c(c2)OCC(c2ccccc2Cl)N3)cn1` (stereo not shown) [Example 35, 3-(2-chlorophenyl)-7-(6-methoxy-4-methylpyridin-3-yl)-3,4-dihydro-2H-benzo[b][1,4]oxazine] gave an IC50 of 0.73 µM.

The same test, now with this note: Jurkat cells, 18-20 h incubation, serum/stimulant variant (1% FBS/PHA or 30% FBS/PMA+ionomycin) not given.
For “(S)-3-(2,6-Difluoro-phenyl)-7-(2-methyl-4-trifluoromethyl-phenyl)-3,4-dihydro-2H-benzo[1,4]oxazine or (R)-3-(2,6-Difluoro-phenyl)-7-(2-methyl-4-trifluoromethyl-phenyl)-3,4-dihydro-2H-benzo[1,4]oxazine [Example 3]”, the IC50 was determined as 0.35 µM.
